Experimental data taken from EP1214299B1, “MUSCARINIC ANTAGONISTS” (SCHERING CORPORATION, priority 1999, dated 2001).
Like-named read-outs stand apart in the source and are kept apart here.

What was measured:
Acetylcholine (ACh) = assay: Microdialysis (ACh in striatal microdialysate); type: in vivo, male Sprague-Dawley Rats; conditions: dose of 10 mg/kg PO; ACh in rat striatum microdialysate
Method: The skull was exposed and drilled through to the dura at a point 0.2 mm anterior and 3.0 mm lateral to the bregma. At these coordinates, a guide cannula was positioned at the outer edge of the dura through the drilled opening, lowered perpendicularly to a depth of 2.5 mm, and permanent!y secured with dental cement to bone screws. Following the surgery, rats were given ampicillin (40 mg/kg, ip) and individually housed in modified cages. A recovery period of approximately 3 to 7 days was allowed before the microdialysis procedure was undertaken. • Microdialysis: All of the equipment and instrumentation used to conduct in vivo microdialysis was obtained from Bioanalytical Systems, Inc. (BAS). The microdialysis procedure involved the insertion through the guide cannula of a thin, needle-like perfusable probe (CMA/12,3 mm x 0.5 mm) to a depth of 3 mm in striatum beyond the end of the guide. The probe was connected beforehand with tubing to a microinjection pump (CMA/ 100). Rats were collared, tethered, and, following probe insertion, were placed in a large, clear, plexiglass bowl with litter material and access to food and water. The probe was perfused at 2 µl/min with Ringer's buffer (NaCl 147 mM; KCl 3.0 mM; CaCl2 1.2 mM; MgCl2 1.0 mM) containing 5.5 mM glucose, 0.2 mM L-ascorbate, and 1 µM neostigmine bromide at pH 7.4). To achieve stable baseline readings, microdialysis was allowed to proceed for 90 minutes prior to the collection of fractions. Fractions (20 µl) were obtained at 10 minute intervals over a 3 hour period using a refrigerated collector (CMA/170 or 200). Four to five baseline fractions were collected, following which the drug or combination of drugs to be tested was administered to the animal. Upon completion of the collection, each rat was autopsied to determine accuracy of probe placement. • Acetylcholine (ACh) analysis: The concentration of ACh in collected samples of microdialysate was determined using HPLC/electrochemical detection. Samples were auto-injected (Waters 712 Refrigerated Sample Processor) onto a polymeric analytical HPLC column (BAS, MF-6150) and eluted with 50 mM Na2HPO4, pH 8.5. To prevent bacterial growth, Kathon CG reagent (0.005%) (BAS) was included in the mobile phase. Eluent from the analytical column, containing separated ACh and choline, was then immediately passed through an immobilized enzyme reactor cartridge (BAS, MF-6151) coupled to the column outlet. The reactor contained both acetylcholinesterase and choline oxidase covalently bound to a polymeric backbone. […] Data acquisition was carried out using an IBM Model 70 computer equipped with a microchannel IEEE board. Integration and quantification of peaks were accomplished using "Maxima" chromatography software (Waters Corporation). Total run time per sample was 11 minutes at a flow rate of 1 ml/min. Retention times for acetylcholine and choline were 6.5 and 7.8 minutes, respectively. To monitor and correct for possible changes in detector sensitivity during chromatography, ACh standards were included at the beginning, middle and end of each sample queue.
Increases in ACh levels are consistent with presynaptic m2 receptor antagonism.
Data for representative and/or preferred compounds of the present invention are as follows (compounds were administered at a dose of 10 mg/kg PO): […]

[1] = molecular target: human m1 muscarinic receptor (Homo sapiens, UniProt P11229); assay: biochemical; type: binding
Sequence of human m1 muscarinic receptor (P11229 whole entry): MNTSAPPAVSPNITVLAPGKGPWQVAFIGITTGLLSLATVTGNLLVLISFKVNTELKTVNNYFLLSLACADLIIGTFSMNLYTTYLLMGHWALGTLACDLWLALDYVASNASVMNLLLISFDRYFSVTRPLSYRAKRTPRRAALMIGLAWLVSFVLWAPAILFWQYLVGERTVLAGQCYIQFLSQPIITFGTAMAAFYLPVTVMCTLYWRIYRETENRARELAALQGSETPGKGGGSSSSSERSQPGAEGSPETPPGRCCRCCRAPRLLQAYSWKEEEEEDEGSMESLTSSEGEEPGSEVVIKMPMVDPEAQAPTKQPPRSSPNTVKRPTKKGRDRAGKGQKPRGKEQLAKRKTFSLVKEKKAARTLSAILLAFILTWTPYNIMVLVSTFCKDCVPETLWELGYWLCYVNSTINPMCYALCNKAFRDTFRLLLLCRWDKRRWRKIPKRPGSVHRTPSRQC

[2] = molecular target: human m4 muscarinic receptor (Homo sapiens, UniProt P08173); assay: biochemical; type: binding
Sequence of human m4 muscarinic receptor (P08173 whole entry): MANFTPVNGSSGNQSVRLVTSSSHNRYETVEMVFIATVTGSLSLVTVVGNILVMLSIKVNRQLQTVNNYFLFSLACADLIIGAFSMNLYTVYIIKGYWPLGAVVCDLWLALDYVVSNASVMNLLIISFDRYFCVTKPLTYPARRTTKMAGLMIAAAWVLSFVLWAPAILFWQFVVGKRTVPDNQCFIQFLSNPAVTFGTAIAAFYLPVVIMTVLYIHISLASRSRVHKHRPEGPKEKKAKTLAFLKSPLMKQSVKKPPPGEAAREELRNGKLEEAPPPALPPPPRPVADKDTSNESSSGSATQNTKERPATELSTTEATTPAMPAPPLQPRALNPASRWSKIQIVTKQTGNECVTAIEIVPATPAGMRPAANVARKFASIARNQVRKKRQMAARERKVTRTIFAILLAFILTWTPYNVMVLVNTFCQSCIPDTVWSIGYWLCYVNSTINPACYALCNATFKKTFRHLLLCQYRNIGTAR

m5 = molecular target: T1, m5 (Homo sapiens, UniProt P08912); conditions: read-out: m5 Ki
T1 sequence (P08912 1-532): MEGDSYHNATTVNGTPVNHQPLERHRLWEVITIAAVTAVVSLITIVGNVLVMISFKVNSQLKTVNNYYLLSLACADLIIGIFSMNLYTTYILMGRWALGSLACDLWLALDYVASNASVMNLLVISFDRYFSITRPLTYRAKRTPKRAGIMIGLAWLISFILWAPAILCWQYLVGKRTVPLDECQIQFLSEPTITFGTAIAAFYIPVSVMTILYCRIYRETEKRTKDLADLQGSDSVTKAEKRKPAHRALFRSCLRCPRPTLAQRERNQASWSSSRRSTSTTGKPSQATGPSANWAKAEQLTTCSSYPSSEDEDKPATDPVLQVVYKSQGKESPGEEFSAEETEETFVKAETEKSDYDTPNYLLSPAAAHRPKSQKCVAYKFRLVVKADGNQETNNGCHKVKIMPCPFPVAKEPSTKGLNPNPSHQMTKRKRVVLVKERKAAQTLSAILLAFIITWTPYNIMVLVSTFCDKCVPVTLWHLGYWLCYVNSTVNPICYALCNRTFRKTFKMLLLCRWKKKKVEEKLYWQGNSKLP

[3] = molecular target: human m3 muscarinic receptor (Homo sapiens, UniProt P20309); conditions: read-out: m3 Ki; membranes from stably transfected CHO cell lines, 3H-QNB
Sequence of human m3 muscarinic receptor (P20309 whole entry): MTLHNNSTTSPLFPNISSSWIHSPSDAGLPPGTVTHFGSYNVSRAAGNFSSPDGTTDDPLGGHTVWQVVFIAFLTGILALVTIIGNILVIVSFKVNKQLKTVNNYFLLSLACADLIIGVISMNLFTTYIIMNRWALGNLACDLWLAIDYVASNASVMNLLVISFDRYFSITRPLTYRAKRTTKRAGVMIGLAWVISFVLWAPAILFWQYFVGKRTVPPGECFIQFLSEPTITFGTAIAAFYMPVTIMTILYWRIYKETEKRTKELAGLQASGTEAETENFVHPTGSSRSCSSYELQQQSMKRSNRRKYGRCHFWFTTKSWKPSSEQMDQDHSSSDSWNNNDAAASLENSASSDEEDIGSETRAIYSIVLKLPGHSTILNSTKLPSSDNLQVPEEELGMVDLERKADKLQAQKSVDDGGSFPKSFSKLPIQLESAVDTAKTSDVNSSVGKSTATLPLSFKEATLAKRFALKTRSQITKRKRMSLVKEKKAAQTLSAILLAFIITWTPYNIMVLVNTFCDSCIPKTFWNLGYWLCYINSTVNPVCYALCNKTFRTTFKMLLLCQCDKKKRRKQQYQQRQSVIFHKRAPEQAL

For `COc1ccc(S(=O)(=O)c2ccc(C3(C4CCN(C5CCN(C(=O)c6cccc(F)c6N)CC5)CC4)OCCO3)cc2)cc1` [Example 2F], the “Microdialysis Maximum % of baseline” value (Acetylcholine (ACh)) was 186 % of baseline.
For `COc1ccc(S(=O)(=O)c2ccc(C3(C4CCN(C5CCN(C(=O)c6cccc(C)c6N)CC5)CC4)OCCO3)cc2)cc1` [Example 2], the “Microdialysis Maximum % of baseline” value (Acetylcholine (ACh)) was 194 % of baseline.
`Nc1cc(F)ccc1C(=O)N1CCC(N2CCC(C3(c4ccc(S(=O)(=O)c5cccc(Cl)c5)cc4)OCCO3)CC2)CC1` [Example 3E] was tested, and the “Microdialysis Maximum % of baseline” value (Acetylcholine (ACh)) was 188 % of baseline.
With `Nc1ccccc1C(=O)N1CCC(N2CCC(Cc3ccc(S(=O)(=O)c4cccc(Cl)c4)cc3)CC2)CC1` [Example 7A] the Ki [1] was 658 nM, the “Microdialysis Maximum % of baseline” value (Acetylcholine (ACh)) was 150 % of baseline and the Ki [2] was 33.3 nM.
With `Cc1cccc(C(=O)N2CCC(N3CCC(Cc4ccc(S(=O)(=O)c5cccc(Cl)c5)cc4)CC3)CC2)c1N` [Example 7] the Ki (m5) was 84.5 nM, the Ki ([1]; membranes from stably transfected CHO cell lines, 3H-QNB, read-out: m1 Ki) was 650 nM and the Ki [3] was 698 nM. For the same compound, the “Microdialysis Maximum % of baseline” value (Acetylcholine (ACh)) was 180 % of baseline and the Ki ([2]; membranes from stably transfected CHO cell lines, 3H-QNB, read-out: m4 Ki) was 61.4 nM.
